Legend:
human liver tumor = assay: Efficacy: tumor response, intrahepatic artery nemorubicin q8wk vs q6wk; assay type: in vivo
Experimental: (§1) The objective of the study was to shorten the time interval between treatment administrations from every 8 weeks (q8wk) of the protocol as reported in WO 00/15203 to every 6 weeks (q6wk). This was done in the attempt of improving the therapeutic potential of nemorubicin treatment through an increase of the dose intensity of the therapy, simultaneously safeguarding patient safety.
(§2) Overall, 13 patients were treated with the q8wk schedule (total 25 cycles administered; doses ranged from 200 to 800 mcg/m^2), and 11 patients were treated with the q6wk schedule (total 32 cycles administered; doses were 200 and 600 mcg/m^2).

[1] = test system: murine leukemias, solid murine and human tumor models; settings: cited from earlier work
[2] = test system: tumor cells resistant to anthracyclines and presenting the mdr phenotype; settings: cited from earlier work
[3] = test system: tumor cells resistant to L-PAM or cDDP, or cells resistant to Topoisomerase II inhibitors (at-mdr); settings: cited from earlier work
[4] = test system: liver metastases from M5076 murine; settings: M5076 murine reticulosarcoma; cited from earlier work
[5] = test system: liver metastases from M5076 murine fibrosarcoma; settings: cited from earlier work
[6] = test system: liver metastases in colorectal and renal cancer patients; settings: i.v., cited from earlier work
[7] = test system: patients with liver cancer; assay: Hematological toxicity - Leucocytes, worst CTC Grade by cycle, intrahepatic artery nemorubicin q8wk vs q6wk; assay type: in vivo, human
Experimental: as §1, §2
The NCI-Common Tosicity Criteria grading system (CTC Grade), Version 2.0, was used to report toxicities.
A slight cumulative effect (i.e., increase in frequency but not in severity) was observed after repeated cycles for leucopenia and neutropenia (Tables 2 and 3), mainly with the q8wk schedule.

[8] = 200 mcg/m^2 q6wk, All cycles, 11 evaluable cycles
[9] = 200 mcg/m^2 q6wk, Cycles > 1, 6 evaluable cycles
[10] = 200 mcg/m^2 q8wk, All cycles, 5 evaluable cycles
[11] = 200 mcg/m^2 q8wk, Cycle 1, 3 evaluable cycles
[12] = 200 mcg/m^2 q8wk, Cycles > 1, 2 evaluable cycles
[13] = 400 mcg/m^2 q8wk, All cycles, 4 evaluable cycles
[14] = 400 mcg/m^2 q8wk, Cycle 1, 3 evaluable cycles
[15] = 600 mcg/m^2 q6wk, All cycles, 18 evaluable cycles
[16] = 600 mcg/m^2 q6wk, Cycle 1, 6 evaluable cycles
[17] = 600 mcg/m^2 q6wk, Cycles > 1, 12 evaluable cycles
[18] = 600 mcg/m^2 q8wk, All cycles, 8 evaluable cycles
[19] = 600 mcg/m^2 q8wk, Cycle 1, 4 evaluable cycles
[20] = 600 mcg/m^2 q8wk, Cycles > 1, 4 evaluable cycles
[21] = 800 mcg/m^2 q8wk, All cycles, 4 evaluable cycles
[22] = 800 mcg/m^2 q8wk, Cycle 1, 3 evaluable cycles
[23] = 800 mcg/m^2 q8wk, Cycles > 1, 1 evaluable cycle

SMILES: COc1cccc2c1C(=O)c1c(O)c3c(c(O)c1C2=O)C[C@@](O)(C(=O)CO)C[C@@H]3O[C@H]1C[C@H](N2CCO[C@H](OC)C2)[C@H](O)[C@H](C)O1.Cl [nemorubicin, 3′desamino-3′[2(S)methoxy-4-morpholinyl]doxorubicin-hydrochloride]
- lesion area reduction versus baseline (human liver tumor; 200 mcg/m^2 q8wk, one patient AJCC stage III (confirmed PR), second cycle): 95.3%
- duration of PR (human liver tumor; 600 mcg/m^2 q6wk, one patient AJCC stage III (confirmed PR), 5 cycles): ≥ 8 months
- reduction of measurable lesion area versus baseline (human liver tumor; 600 mcg/m^2 q6wk, one patient AJCC stage III (confirmed PR), cycle 3): 78.2%
- reduction of the measurable lesion area (human liver tumor; 600 mcg/m^2 q6wk, one patient AJCC stage III (confirmed PR), first treatment cycle): 48.4%
- duration of PR in the original lesion (right lobe) (human liver tumor; 600 mcg/m^2 q8wk, one patient stage III (unconfirmed PR)): about 3 months
- decrease of lesion area versus baseline (human liver tumor; 600 mcg/m^2 q8wk, one patient stage III (unconfirmed PR), after one cycle): 54.3%
- decrease in tumor area versus baseline, perfused right lobe (human liver tumor; 600 mcg/m^2 q8wk, one patient stage III (unconfirmed PR), cycle 2): 68.2%
- decrease of the tumor area versus baseline (human liver tumor; 800 mcg/m^2 q8wk, one patient AJCC stage III (unconfirmed PR), after 3 cycles): 52%
- confirmed PR out of treated patients (human liver tumor; q6wk schedule): two confirmed PR out of 11 treated patients
- confirmed PR out of treated patients (human liver tumor; q8wk schedule): one confirmed PR out of 13 treated patients
- antitumor activity ([1]; after i.p., i.v. or oral administration, murine leukemias, solid murine and human tumor models): good antitumor activity
- effective oral doses, fold higher than the effective i.v. doses ([1]; animal tumor models, oral vs i.v.): 1.3-2 fold
- optimal i.v. dose, fold less than that of doxorubicin ([1]; in vivo, i.v.): at least 80 fold
- activity in vitro and in vivo [2]: active
- cross-resistance [3]: No cross-resistance
- activity against liver metastases, oral versus i.v. [4]: higher after oral administration as compared to the i.v. route
- efficacy on liver metastases versus solid primary ([5]; administered orally): more effective on the liver metastases than on the solid primary
- efficacy relative to oral formulation ([5]; injectable formulation): less effective
- best result on survival ([5]; oral formulation, administered daily for 5 days): doubling of survival time
- principle toxicities [6]: nausea and vomiting (requiring intravenous antiemetic treatment), myelosuppression and transient elevations in transaminases
- antitumor effect observed ([6]; tumor shrinkage at doses of 1250 and 1500 mcg/m^2, 197 patients): regressions of liver metastases were repeatedly observed
- Leucocytes, worst CTC Grade by cycle: All Grades (%) [7, 8]: 4 (36%) (%)
- Leucocytes, worst CTC Grade by cycle: Grade 1-2 (%) [7, 8]: 3 (27%) (%)
- Leucocytes, worst CTC Grade by cycle: All Grades (%) ([7]; 200 mcg/m^2 q6wk, Cycle 1, 5 evaluable cycles): 1 (20%) (%)
- Leucocytes, worst CTC Grade by cycle: All Grades (%) [7, 9]: 3 (50%) (%)
- Leucocytes, worst CTC Grade by cycle: Grade 1-2 (%) [7, 9]: 3 (50%) (%)
- Leucocytes, worst CTC Grade by cycle: All Grades (%) [7, 10]: 4 (80%) (%)
- Leucocytes, worst CTC Grade by cycle: Grade 1-2 (%) [7, 10]: 4 (80%) (%)
- Leucocytes, worst CTC Grade by cycle: All Grades (%) [7, 11]: 2 (67%) (%)
- Leucocytes, worst CTC Grade by cycle: Grade 1-2 (%) [7, 11]: 2 (67%) (%)
- Leucocytes, worst CTC Grade by cycle: All Grades (%) [7, 12]: 2 (100%) (%)
- Leucocytes, worst CTC Grade by cycle: Grade 1-2 (%) [7, 12]: 2 (100%) (%)
- Leucocytes, worst CTC Grade by cycle: All Grades (%) [7, 13]: 1 (25%) (%)
- Leucocytes, worst CTC Grade by cycle: Grade 1-2 (%) [7, 13]: 1 (25%) (%)
- Leucocytes, worst CTC Grade by cycle: All Grades (%) [7, 14]: 1 (33%) (%)
- Leucocytes, worst CTC Grade by cycle: Grade 1-2 (%) [7, 14]: 1 (33%) (%)
- Leucocytes, worst CTC Grade by cycle: All Grades (%) [7, 15]: 8 (44%) (%)
- Leucocytes, worst CTC Grade by cycle: Grade 1-2 (%) [7, 15]: 8 (44%) (%)
- Leucocytes, worst CTC Grade by cycle: All Grades (%) [7, 16]: 2 (33%) (%)
- Leucocytes, worst CTC Grade by cycle: Grade 1-2 (%) [7, 16]: 2 (33%) (%)
- Leucocytes, worst CTC Grade by cycle: All Grades (%) [7, 17]: 6 (50%) (%)
- Leucocytes, worst CTC Grade by cycle: Grade 1-2 (%) [7, 17]: 6 (50%) (%)
- Leucocytes, worst CTC Grade by cycle: All Grades (%) [7, 18]: 7 (87%) (%)
- Leucocytes, worst CTC Grade by cycle: Grade 1-2 (%) [7, 18]: 7 (87%) (%)
- Leucocytes, worst CTC Grade by cycle: All Grades (%) [7, 19]: 3 (75%) (%)
- Leucocytes, worst CTC Grade by cycle: Grade 1-2 (%) [7, 19]: 3 (75%) (%)
- Leucocytes, worst CTC Grade by cycle: All Grades (%) [7, 20]: 4 (100%) (%)
- Leucocytes, worst CTC Grade by cycle: Grade 1-2 (%) [7, 20]: 4 (100%) (%)
- Leucocytes, worst CTC Grade by cycle: All Grades (%) [7, 21]: 3 (75%) (%)
- Leucocytes, worst CTC Grade by cycle: Grade 1-2 (%) [7, 21]: 3 (75%) (%)
- Leucocytes, worst CTC Grade by cycle: All Grades (%) [7, 22]: 2 (67%) (%)
- Leucocytes, worst CTC Grade by cycle: Grade 1-2 (%) [7, 22]: 2 (67%) (%)
- Leucocytes, worst CTC Grade by cycle: All Grades (%) [7, 23]: 1 (100%) (%)
- Leucocytes, worst CTC Grade by cycle: Grade 1-2 (%) [7, 23]: 1 (100%) (%)

From US20060264388A1, “Method for treating liver cancer by intrahepatic administration of nemorubicin” (priority 2003, published 2006)
